From patent US8933110B2, “Hepatitis C virus inhibitors” (Enanta Pharmaceuticals, Inc., priority 2010, dated 2015) come the findings set out here.

Like-named read-outs stand apart in the source and are kept apart here.

As usually defined, the EC50 is the concentration needed to bring the measured effect to its halfway point.

This experiment deals with HCV 1b genotype replicon. The experiment in a line: HCV replicon assay (qRT-PCR or luciferase), genotype 1b. Type of experiment: cell-based. The conditions noted are these: Hepatitis C virus. An excerpt: HCV replicon cell lines (kindly provided by R. Bartenschlager) isolated from colonies as described by Lohman et al. (Lohman et al. (1999) Science 285: 110-113, expressly incorporated by reference in its entirety) and used for all experiments. The HCV replicon has the nucleic acid sequence set forth in EMBL Accession No.: AJ242651, the coding sequence of which is from nucleotides 1801 to 8406.
The coding sequence of the published HCV replicon was synthesized and subsequently assembled in a modified plasmid pBR322 (Promega, Madison, Wis.) using standard molecular biology techniques. One replicon cell line (“SGR 11-7”) stably expresses HCV replicon RNA which consists of (i) the HCV 5′UTR fused to the first 12 amino acids of the capsid protein, (ii) the neomycin phosphotransferase gene (neo), (iii) the IRES from encephalomyocarditis virus (EMCV) and (iv) HCV NS2 to NS5B genes and the HCV 3′UTR. Another replicon cell line (“Huh-luc/neo-ET”) described by Vrolijk et. al. (Vrolijk et. al. (2003) Journal of Virological Methods 110:201-209, expressly incorporated by reference in its entirety) stably expresses HCV replicon RNA which consists of (i) the HCV 5′UTR fused to the first 12 amino acids of the capsid protein, (ii) the firefly luciferase reporter gene, (iii) the ubiquitin gene, (iv) the neomycin phosphotransferase gene (neo), (v) the IRES from encephalomyocarditis virus (EMCV) and (vi) HCV NS3 to NS5B genes that harbor cell culture adaptive mutations (E1202G, T12801, K1846T) and the HCV 3′UTR.
These cell lines are maintained at 37° C., 5% CO2, 100% relative humidity in DMEM (Cat#11965-084, Invitrogen), with 10% fetal calf serum (“FCS”, Invitrogen), 1% non-essential amino acids (Invitrogen), 1% of Glutamax (Invitrogen), 1% of 100× penicillin/streptomycin (Cat#15140-122, Invitrogen) and Geneticin (Cat#10131-027, Invitrogen) at 0.75 mg/ml or 0.5 mg/ml for 11-7 and Huh-luc/neo-ET cells, respectively.
EC50 values of single agent compounds were determined by HCV RNA detection using quantitative RT-PCR, according to the manufacturer's instructions, with a TAQMAN® One-Step RT-PCR Master Mix Reagents Kit (Cat#AB 4309169, Applied Biosystems) on an ABI Model 7500 thermocycler. EC50 values of combinations are similarly determined by HCV RNA detection using quantitative RT-PCR. The TAQMAN primers to use for detecting and quantifying HCV RNA obtained from Integrated DNA Technologies. HCV RNA is normalized to GAPDH RNA levels in drug-treated cells, which is detected and quantified using the Human GAPDH Endogenous Control Mix (Applied Biosystems, AB 4310884E). Total cellular RNA is purified from 96-well plates using the RNAqueous 96 kit (Ambion, Cat#AM1812). Chemical agent cytotoxicity is evaluated using an MTS assay according to the manufacturer's directions (Promega).
Since clinical drug resistance often develops in viral infections following single agent therapies, there is a need to assess the additive, antagonistic, or synergistic properties of combination therapies. We use the HCV replicon system to assess the potential use of the compound of the present invention or in combination therapies with Interferon alpha, cyclosporine analogs and inhibitors targeting other HCV proteins. The acute effects of a single or combinations of drugs are studied in the “Huh-luc/neo-ET” replicon with each chemical agent titrated in an X or Y direction in a 6 point two-fold dilution curve centered around the EC50 of each drug. Briefly, replicon cells are seeded at 7,000 cells per well in 90 ul DMEM (without phenol red, Invitrogen Cat.#31053-036) per well with 10% FCS, 1% non-essential amino acids, 1% of Glutamax and 1% of 100× penicillin/streptomycin and incubated overnight at 37° C., 5% CO2, 100% relative humidity. […]
In general terms: A replicon is a self-replicating genome or part of one, used to study replication in cells.

[1] abbreviates: read-out: Genotype-1b replicon EC50 Range.
Setting [2] is: read-out: Genotype-1b replicon EC50.

Consider `COC(=O)N[C@H]1CCCCOCc2[nH]c(nc2-c2ccc(-c3ccc(-c4c[nH]c([C@@H]5CCCN5C(=O)[C@@H](NC(=O)OC)C(C)C)n4)cc3)cc2)[C@@H]2CCCN2C1=O` [Example 83], for which, under setting [1], the half-maximal effective concentration (EC50) is less than 100 pM.
On to `COC(=O)N[C@H]1CCCCOCc2[nH]c(nc2-c2ccc(-c3ccc(-c4c[nH]c([C@@H]5CC6(CC6)CN5C(=O)[C@@H](NC(=O)OC)C(C)C)n4)cc3)cc2)[C@@H]2CCCN2C1=O` [Example 258], for which the EC50 runs as follows: under setting [2], 14 pM; under setting [1], less than 100 pM.
For the compound `COC(=O)N[C@H](C(=O)N1CCC[C@H]1c1nc(-c2ccc(-c3ccc(-c4nc5[nH]c4COCCC[C@H](C)[C@H](NC(=O)OC)C(=O)N4CCC[C@@H]54)cc3)cc2)c[nH]1)C(C)C` [Example 317], the EC50 under setting [1] is less than 100 pM.
On the same count and under the same terms, in the case of `COC(=O)N[C@H](C(=O)N1CCC[C@H]1c1nc(-c2ccc(-c3ccc(-c4nc5[nH]c4COC/C=C/[C@H](C)[C@H](NC(=O)OC)C(=O)N4CCC[C@@H]54)cc3)cc2)c[nH]1)C(C)C` [Example 318] it was 100 to 1000 pM; in that of `COC(=O)N[C@H]1CCCCCOCc2[nH]c(nc2-c2ccc(-c3ccc(-c4c[nH]c([C@@H]5CCCN5C(=O)[C@@H](NC(=O)OC)C(C)C)n4)cc3)cc2)[C@@H]2CCCN2C1=O` [Example 322], less than 100 pM.
Turning to `COC(=O)N[C@H]1Cc2cc(on2)COCc2[nH]c(nc2-c2ccc(-c3ccc(-c4c[nH]c([C@@H]5CCCN5C(=O)[C@@H](NC(=O)OC)C(C)C)n4)cc3)cc2)[C@@H]2CCCN2C1=O` [Example 333], the EC50 reads like this: under setting [2], 83 pM; under setting [1], less than 100 pM.
On to `COC(=O)N[C@H]1CCCCOCc2[nH]c(nc2-c2ccc(-c3ccc(-c4nc5[nH]c4COCCCC[C@H](NC(=O)OC)C(=O)N4CCC[C@@H]54)cc3)cc2)[C@@H]2CCCN2C1=O` [Example 336], for which the EC50 runs as follows: under setting [2], 175 pM; under setting [1], 100 to 1000 pM.
Consider `COC(=O)N[C@H]1C/C=C/COCc2[nH]c(nc2-c2ccc(-c3ccc(-c4c[nH]c([C@@H]5CCCN5C(=O)[C@@H](NC(=O)OC)C(C)C)n4)cc3)cc2)[C@@H]2CCCN2C1=O` [Example 344], for which the EC50 by setting is: under setting [2], 47 pM; under setting [1], less than 100 pM.
`COC(=O)N[C@H](C(=O)N1CCC[C@H]1c1nc(-c2ccc(-c3ccc(-c4nc5[nH]c4COCCCCO[C@H](C)[C@H](NC(=O)OC)C(=O)N4CCC[C@@H]54)cc3)cc2)c[nH]1)C(C)C` [Example 349]: the EC50 under setting [1] is less than 100 pM.
`COC(=O)N[C@H]1COCCCCOCc2[nH]c(nc2-c2ccc(-c3ccc(-c4c[nH]c([C@@H]5CCCN5C(=O)[C@@H](NC(=O)OC)C(C)C)n4)cc3)cc2)[C@@H]2CCCN2C1=O` [Example 353]: the EC50 was 23 pM under setting [2] and less than 100 pM under setting [1].
Consider `COC(=O)N[C@H]1CCCCC/C=C\COCc2[nH]c(nc2-c2ccc(-c3ccc(-c4c[nH]c([C@@H]5CCCN5C(=O)[C@@H](NC(=O)OC)C(C)C)n4)cc3)cc2)[C@@H]2CCCN2C1=O` [Example 355], for which the EC50 under setting [1] is less than 100 pM.
On the same count and under the same terms, in the case of `COC(=O)N[C@H]1CCCCCCCCOCc2[nH]c(nc2-c2ccc(-c3ccc(-c4c[nH]c([C@@H]5CCCN5C(=O)[C@@H](NC(=O)OC)C(C)C)n4)cc3)cc2)[C@@H]2CCCN2C1=O` [Example 356] it was less than 100 pM; in that of `COC(=O)N[C@H]1C/C=C/COCc2[nH]c(nc2-c2ccc(-c3ccc(-c4c[nH]c([C@@H]5CCCN5C(=O)[C@@H](NC(=O)OC)C(C)C)n4)cc3)cc2)CN(C)C1=O` [Example 359], greater than 1000 pM.
With `COC(=O)N[C@H]1CCCCCCOCc2[nH]c(nc2-c2ccc(-c3ccc(-c4c[nH]c([C@@H]5CCCN5C(=O)[C@@H](NC(=O)OC)C(C)C)n4)cc3)cc2)[C@@H]2CCCN2C1=O` [Example 366], under setting [1], the concentration for a half-maximal effect (EC50) is less than 100 pM.
In the case of `COC(=O)N[C@H]1CCCCCCCOCc2[nH]c(nc2-c2ccc(-c3ccc(-c4c[nH]c([C@@H]5CCCN5C(=O)[C@@H](NC(=O)OC)C(C)C)n4)cc3)cc2)[C@@H]2CCCN2C1=O` [Example 368], the EC50 under setting [1] was less than 100 pM.
